Marks after values point to notes of the source that are not given here.
What was measured:
[1] = tested on: Reserpine-Induced Akinesia in Mice; test: Inhibition of akinesia induced by reserpine; format: in vivo, Kunming mice; conditions: reserpine 2.5 mg/kg i.p., 10 mice per group
Protocol: Fifty male Kunming mice, 8-9 weeks old and weighing 18-22 g, were randomly divided by weight into 5 groups, and administered by gavage a single dose of one of the drugs listed in Table 5 for 10 consecutive days. Sixty minutes after the last dose, mice were given a reserpine injection (2.5 mg/kg) delivered i. p. Sixty minutes later, mice were individually placed on the center of a round filter paper 7.5 cm in diameter. After a 30-sec observation, the number of animals that were still on the filter paper was recorded. Fisher's exact test was used for statistical analysis.

[2] = tested on: model rats wearing shackles; test: Stress testing of rats wearing shackles (open-field test); format: in vivo; conditions: shackle model rats, mean ± SD
Excerpt: (§1) (i) Modeling Method: Sixty male SD rats, 8-9 weeks old and weighing 200-250 g, were randomly divided into 6 groups and subjected to gavage once a day as shown in Table 9. On the first day, individually housed rats were fitted with a cylindrical plastic shackle-like device composed of two pieces of red organic glass 0.2 cm-thick and 4 cm in diameter. The device could be adjusted according to the size of the animals and was worn for 21 days.
(ii) Test Indexes: Behavior such as rearing up; grabbing and gnawing; braying; slowness in reactions; action tardiness; narrowing of the eyes with secretion; yellow of fur; small, dry and fewer feces; borrow-reddish fail with scales and weight loss. An open-field test was used to observe the behavior of animals on day 21 (the same method used with the chronic stress rat model).

NA Re-uptake = test: NA re-uptake test ([3H]-norepinephrine, corpus striatum homogenate); format: biochemical, SD rats
[3] = tested on: Levodopa Behavior in Mice; test: Enhancement of the behavioral effects of levodopa on mice; format: in vivo, Kunming mice; conditions: 10 mice per group
Protocol: Seventy male Kunming mice, 8-9 weeks old and weighing 18-22 g, were randomly divided by weight […] into 7 groups and administered a single dose by gavage as shown in Table 14. Sixty minutes later, levodopa at a dose of 200 mg/kg (the maximal dose not inducing running in mice) was administered i. p. Then, mice were put into separate cages and observed for 30 minutes. The number of running mice was recorded. Fisher's exact test was used for statistical analysis.

[4] = tested on: mice in the tail suspension test; test: Tail suspension test in mice; format: in vivo, Kunming mice; conditions: mean ± SD
Excerpt: Fifty male Kunming mice, 9-10 weeks old and weighing 22-24 g, were randomly divided by weight into 5 groups and administered by gavage a dose of one of the drugs listed in Table 6. Sixty minutes later, mice were individually suspended by the tail (1 cm from the tip) to a horizontal 1 cm-diameter PVC bar by use of the adhesive tape. The tail of mouse was thereby prevented from twisting. The PVC bar was placed overhead to suspend the mouse upside-down, keeping the head 5 cm above the table surface. To avoid interference, each mouse was partitioned by clapboard. […] T-test was used for statistical analysis.
Fifty male Kunming mice, 8-9 weeks old and weighing 18-22 g, were randomly divided by weight into 5 groups, and administered by gavage a dose of one of the drugs listed in Table 7 for 10 consecutive days. Sixty minutes after the last dose, mice were individually suspended by the tail (1 cm from the tip) from a horizontal 1 cm-diameter PVC bar using the adhesive tape. The tail of the mouse was thereby prevented from twisting. The PVC bar was placed overhead to suspend the mouse upside down, keeping the head 5 cm above the table surface. To avoid interference, each mouse was partitioned by clapboard.

[5] = tested on: 5-HTP-Induced Tremors in Mice; test: L-5-HTP induced tremor testing of mice; format: in vivo, Kunming mice; conditions: 10 mice per group
Protocol: Seventy male Kunming mice, 8-9 weeks old and weighing 18-22 g, were randomly divided by weight into 7 groups and administered a single dose by gavage as shown in Table 13. […] Then, mice were individually put into cages (16×27 cm) and observed for 20 minutes. The number of animals with tremors was recorded. Fisher's exact test was used for statistical analysis.

[6] = tested on: monoamine neurotransmitter and its metabolite in cerebral tissues; test: Measure of cerebral neurotransmitters in rats wearing shackles (HPLC-ECD); format: in vivo, SD rats; conditions: shackle model rats, brain
Excerpt: as §1
Preparation of Cerebral Tissues: Rats were Sacrificed by Femoral Arterial Exsanguination, and whole brains were weighed after the cerebellum was excised and homogenized in 950 μl (0.1 mol/L) perchloric acid (containing 0.05% Na2EDTA) and 50 μl (2 μg/ml) of DHBA. This material was then centrifuged at 11,000 rpm/for 10 minutes and, 10 μl of the supernatant were taken for testing. Results were as follows: The amount of each neurotransmitter was shown as the wet weight (ng/g) in cerebral tissues.
Chromatographic conditions: Chromatography was performed with a Shimadzu HPLC system, which was equipped with an L-BCD-6A electrochemical detector (detection range: 0.1-500 nA), a chromatographic column of 5 μm, 200 mm×4.6 mm ID glassy carbon electrode; the flow rate employed was 1.2 ml/min, the operating voltage was +0.75 V; and oxygenation was maintained. An NP2000 workstation was used for data recording and processing (Intelligence Information Institute of Zhejiang University). The potential difference between the working electrode and reference electrode was 0.75 V. The mobile phase, prepared with deionized water and degassed, consisted of 0.1 mmol/L citric acid-0.1 mmol/L sodium acetate buffer at pH4.37 with 10% ethanol. A mixture of a B81.2 mmol/L ion pair and 1.3 mmol/L Di-n-butylamine was used after degasification of the G4 glass filler.
Preparation of standard solutions: The stock solutions were 2 μg/ml for DHBA and 20 μg/ml for NE, DA, DOPAC, 5-HT, 5-HIAA and HAV. Standard solution 6 was prepared by mixing 20 μl each of NE, DA, DOPAC, 5-HT, 5-HIAA and HAV, then 80 μl of 0.1 mM mmol/LHCLO4 were added. Standard solution 7 (100 ng/ml) was prepared by mixing 50 μl of standard solution 6, 50 μl DHBA and 900 μl 0.1 mmol/LHCLO4. Standard solution 7 (10 μl) was used for HPLC.

[7] = open-field day 21, 16 mg/kg × 21 i.g.

Q: How did the “Number of animals Remaining on the filter paper for 30 seconds” value (from here on “Number of animals Remaining”) ([1]; 3.75 mg/kg × 10 i.g.) turn out when `CC(C)=CCC[C@](C)(O)[C@H]1CC[C@]2(C)[C@@H]1[C@H](O)C[C@@H]1[C@@]3(C)CC[C@H](O)C(C)(C)[C@@H]3CC[C@]12C` [20(S)-protopanaxadiol] was run?
A: 8

Q: And the “Number of animals Remaining” value ([1]; 7.5 mg/kg × 10 i.g.)?
A: 7

Q: What about the Number of crossing ([2]; open-field day 21, 3.33 mg/kg × 21 i.g.) of the same molecule?
A: 7.00 ± 2.05 times/3 min

Q: What about the Amount of re-uptake (NA Re-uptake; concentration 0.01 μg/ml) of the same molecule?
A: 5347.8 ± 555.1 dmp

Q: What about the Inhibitory rate (NA Re-uptake; concentration 0.01 μg/ml) of the same molecule?
A: 4.4%

Q: And the Amount of re-uptake (NA Re-uptake; concentration 0.1 μg/ml)?
A: 5137.2 ± 465.7 dmp

Q: What about the Inhibitory rate (NA Re-uptake; concentration 0.1 μg/ml) of the same molecule?
A: 8.2%

Q: And the Amount of re-uptake (NA Re-uptake; concentration 1 μg/ml)?
A: 4950.6 ± 534.5 dmp

Q: What about the Inhibitory rate (NA Re-uptake; concentration 1 μg/ml) of the same molecule?
A: 11.5%

Q: What about the Amount of re-uptake (NA Re-uptake; concentration 10 μg/ml) of the same molecule?
A: 4690.1 ± 332.1 dmp

Q: What about the Inhibitory rate (NA Re-uptake; concentration 10 μg/ml) of the same molecule?
A: 16.2%

Q: And the “Number of running animals” value ([3]; 3.75 mg/kg × 1 i.g., with levodopa 200 mg/kg i.p.)?
A: 2

Q: What about the “Cumulative immobility within 6 minutes” value ([4]; single dose 3.75 mg/kg × 1 i.g.) of the same molecule?
A: 95.00 ± 36.21 s

Q: And the “Cumulative immobility within 6 minutes” value ([4]; single dose 7.5 mg/kg × 1 i.g.)?
A: 92.30 ± 32.93 s

Q: What about the “Number of running animals” value ([5]; 3.75 mg/kg × 1 i.g., with 5-HTP 200 mg/kg i.p.) of the same molecule?
A: 2

Q: What about the “Concentration of monoamine neurotransmitter and its metabolite: 5-HIAA” value (from here on “Concentration … 5-HIAA”) ([6]; 3.33 mg/kg × 21 i.g.) of the same molecule?
A: 8.78 ng/g nerve tissues

Q: And the “Concentration of monoamine neurotransmitter and its metabolite: DA” value (from here on “Concentration … DA”) ([6]; 3.33 mg/kg × 21 i.g.)?
A: 375.96 ng/g nerve tissues

Q: And the “Concentration of monoamine neurotransmitter and its metabolite: DOPAC” value (from here on “Concentration … DOPAC”) ([6]; 3.33 mg/kg × 21 i.g.)?
A: 21.57 ng/g nerve tissues

Q: And the “Concentration … 5-HIAA” value ([6]; 6.67 mg/kg × 21 i.g.)?
A: 9.02 ng/g nerve tissues

Q: What about the “Concentration of monoamine neurotransmitter and its metabolite: 5-HT” value (“Concentration … 5-HT” for short) ([6]; 6.67 mg/kg × 21 i.g.) of the same molecule?
A: 113.18 ng/g nerve tissues

Q: What about the “Concentration … DA” value ([6]; 6.67 mg/kg × 21 i.g.) of the same molecule?
A: 401.67 ng/g nerve tissues

Q: What about the “Concentration … DOPAC” value ([6]; 6.67 mg/kg × 21 i.g.) of the same molecule?
A: 22.17 ng/g nerve tissues

Q: What about the “Concentration of monoamine neurotransmitter and its metabolite: HAV” value (“Concentration … HAV” for short) ([6]; 6.67 mg/kg × 21 i.g.) of the same molecule?
A: 56.37 ng/g nerve tissues

Q: And the “Concentration … 5-HIAA” value ([6]; 13.33 mg/kg × 21 i.g.)?
A: 8.62 ng/g nerve tissues

Q: What about the “Concentration … 5-HT” value ([6]; 13.33 mg/kg × 21 i.g.) of the same molecule?
A: 102.81 ng/g nerve tissues

Q: What about the “Concentration … DA” value ([6]; 13.33 mg/kg × 21 i.g.) of the same molecule?
A: 394.41 ng/g nerve tissues

Q: And the “Concentration … DOPAC” value ([6]; 13.33 mg/kg × 21 i.g.)?
A: 20.68 ng/g nerve tissues

Q: What about the “Concentration … HAV” value ([6]; 13.33 mg/kg × 21 i.g.) of the same molecule?
A: 53.19 ng/g nerve tissues

Q: What about the “Concentration of monoamine neurotransmitter and its metabolite: NE” value ([6]; 13.33 mg/kg × 21 i.g.) of the same molecule?
A: 11.04 ng/g nerve tissues

Q: How did the “Number of animals Remaining” value ([1]; 18 mg/kg × 10 i.g.) turn out when `CNCCC(Oc1ccc(C(F)(F)F)cc1)c1ccccc1` (stereo not drawn) [Fluoxetine, reference compound] was run?
A: 3**

Q: And the Number of crossing [2, 7]?
A: 11.20 ± 3.08 times/3 min

Q: And the Number of rearing [2, 7]?
A: 49.80 ± 20.31 times/3 min

Q: And the Amount of re-uptake (NA Re-uptake; concentration 1 μg/ml)?
A: 4311.8 ± 733.8 dmp

Q: And the “Number of running animals” value ([3]; 18 mg/kg × 1 i.g., with levodopa 200 mg/kg i.p.)?
A: 7**

Q: What about the “Number of running animals” value ([3]; 18 mg/kg × 1 i.g., without levodopa) of the same molecule?
A: 0

Q: And the “Cumulative immobility within 6 minutes” value ([4]; multiple dose 18 mg/kg × 10 i.g.)?
A: 59.10 ± 35.40 s

Q: What about the “Cumulative immobility within 6 minutes” value ([4]; single dose 18 mg/kg × 1 i.g.) of the same molecule?
A: 70.90 ± 23.11 s

Q: And the “Number of running animals” value ([5]; 18 mg/kg × 1 i.g., with 5-HTP 200 mg/kg i.p.)?
A: 8***

Q: What about the “Number of running animals” value ([5]; 18 mg/kg × 1 i.g., without 5-HTP) of the same molecule?
A: 0

Q: And the “Concentration … 5-HIAA” value ([6]; 16 mg/kg × 21 i.g.)?
A: 8.42 ng/g nerve tissues

Q: And the “Concentration … 5-HT” value ([6]; 16 mg/kg × 21 i.g.)?
A: 136.88 ± ng/g nerve tissues

Q: And the “Concentration … DA” value ([6]; 16 mg/kg × 21 i.g.)?
A: 406.97 ng/g nerve tissues

Q: What about the “Concentration … DOPAC” value ([6]; 16 mg/kg × 21 i.g.) of the same molecule?
A: 21.53 ng/g nerve tissues

Q: What about the “Concentration … HAV” value ([6]; 16 mg/kg × 21 i.g.) of the same molecule?
A: 62.17 ± ng/g nerve tissues

Q: What about the “Concentration of monoamine neurotransmitter and its metabolite: NE” value ([6]; 16 mg/kg × 21 i.g.) of the same molecule?
A: 13.67 ± ng/g nerve tissues
